The values that follow come from ChEMBL document CHEMBL1143033, “Nodulisporol and Nodulisporone, novel specific inhibitors of human DNA polymerase lambda from a fungus, Nodulisporium sp” (Bioorg Med Chem, 2007).

SMILES strings stand for the structures. pIC50: −log10 of the molar value. Where only a bound is given, the exact number is not on record here.

Assay [1] can be described thus: Inhibition of human DNA polymerase gamma.
The nature of assay [2]: Inhibition of human DNA polymerase epsilon.
Assay [3] concerns the target T1, DNA polymerase delta catalytic subunit (Homo sapiens, UniProt P28340).
T1 sequence (P28340 whole entry): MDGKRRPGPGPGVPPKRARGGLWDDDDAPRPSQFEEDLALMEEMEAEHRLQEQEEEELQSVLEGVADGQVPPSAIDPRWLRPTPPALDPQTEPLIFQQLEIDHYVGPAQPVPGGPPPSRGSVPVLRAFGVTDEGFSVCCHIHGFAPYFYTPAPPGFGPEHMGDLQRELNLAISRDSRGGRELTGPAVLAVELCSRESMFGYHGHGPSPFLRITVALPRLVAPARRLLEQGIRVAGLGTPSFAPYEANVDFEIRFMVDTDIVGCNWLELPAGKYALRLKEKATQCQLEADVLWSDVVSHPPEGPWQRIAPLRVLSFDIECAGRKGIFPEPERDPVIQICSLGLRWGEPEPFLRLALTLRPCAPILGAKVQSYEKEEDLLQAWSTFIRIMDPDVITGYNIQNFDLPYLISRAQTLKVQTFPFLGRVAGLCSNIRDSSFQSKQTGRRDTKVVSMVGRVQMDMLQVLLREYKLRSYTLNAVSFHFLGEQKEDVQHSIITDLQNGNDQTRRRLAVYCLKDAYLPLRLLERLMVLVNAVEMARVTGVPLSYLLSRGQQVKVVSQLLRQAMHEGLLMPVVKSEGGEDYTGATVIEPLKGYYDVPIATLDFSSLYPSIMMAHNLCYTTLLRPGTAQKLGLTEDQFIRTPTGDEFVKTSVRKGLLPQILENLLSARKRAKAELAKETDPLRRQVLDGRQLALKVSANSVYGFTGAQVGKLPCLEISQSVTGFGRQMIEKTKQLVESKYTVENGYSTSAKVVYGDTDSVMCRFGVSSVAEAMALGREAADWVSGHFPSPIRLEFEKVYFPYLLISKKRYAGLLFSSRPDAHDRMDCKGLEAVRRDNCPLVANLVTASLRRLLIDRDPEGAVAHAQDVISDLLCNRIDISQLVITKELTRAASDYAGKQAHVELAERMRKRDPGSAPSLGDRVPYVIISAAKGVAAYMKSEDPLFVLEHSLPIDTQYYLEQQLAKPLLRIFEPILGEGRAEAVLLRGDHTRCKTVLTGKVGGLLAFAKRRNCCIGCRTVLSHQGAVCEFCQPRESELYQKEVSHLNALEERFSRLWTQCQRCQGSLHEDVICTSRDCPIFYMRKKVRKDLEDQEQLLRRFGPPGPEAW
In words: Inhibition of human DNA polymerase delta.

Assay [4] in a line: Inhibition of calf DNA polymerase alpha. Set-up: species or system Bos taurus.
A further assay addresses DNA polymerase beta (Rattus norvegicus, UniProt P06766). The assay is described as follows: Inhibition of rat DNA polymerase beta.
For the next assay, the target named is T2, DNA polymerase lambda (Homo sapiens, UniProt Q9UGP5).
T2 sequence (Q9UGP5 whole entry): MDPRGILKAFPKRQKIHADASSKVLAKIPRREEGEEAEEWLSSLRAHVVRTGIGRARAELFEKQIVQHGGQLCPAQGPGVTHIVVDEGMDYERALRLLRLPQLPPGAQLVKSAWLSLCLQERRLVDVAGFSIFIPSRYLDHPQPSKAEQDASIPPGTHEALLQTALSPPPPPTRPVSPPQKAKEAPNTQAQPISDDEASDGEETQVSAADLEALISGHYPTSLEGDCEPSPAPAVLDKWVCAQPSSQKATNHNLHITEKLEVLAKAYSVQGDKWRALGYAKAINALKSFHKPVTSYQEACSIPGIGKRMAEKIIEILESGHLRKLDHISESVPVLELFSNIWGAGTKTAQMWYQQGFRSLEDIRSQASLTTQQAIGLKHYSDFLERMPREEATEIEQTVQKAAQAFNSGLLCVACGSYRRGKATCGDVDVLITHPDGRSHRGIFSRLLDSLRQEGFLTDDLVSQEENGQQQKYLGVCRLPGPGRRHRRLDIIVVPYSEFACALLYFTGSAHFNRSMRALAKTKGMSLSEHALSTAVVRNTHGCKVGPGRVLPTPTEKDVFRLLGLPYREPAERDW
The assay is described as follows: Inhibition of human DNA polymerase lambda.

For `COc1cc(O)c2c(=O)c(CO)c(C)oc2c1`, the pIC50 – broadly, the IC50 on a negative log10 scale, so that one unit is a factor of ten – in assay [1] was below 3.00; in assay [2], below 3.00; in assay [3] it was below 3.00; in assay [4] it was below 3.00; at DNA polymerase beta, below 3.00; against DNA polymerase lambda, 3.34.

Consider `COc1cccc2c1C(=O)OC(C)C2` (configuration not stated), for which the pIC50 in assay [1] was below 3.00; in assay [2], below 3.00; in assay [3], below 3.00; in assay [4], below 3.00; against DNA polymerase beta it was below 3.00; against DNA polymerase lambda, 3.74.

As for `CC1Cc2cccc(O)c2C(=O)O1` (configuration not stated) [MELLEIN], the pIC50 was below 3.00 in assay [1]; below 3.00 in assay [2]; below 3.00 in assay [3]; below 3.00 in assay [4]; below 3.00 against DNA polymerase beta; 3.50 on DNA polymerase lambda.

With `COc1cccc2c1C(=O)CCC2O` (configuration not stated) [NODULISPORONE], the pIC50 was below 3.00 in assay [1]; below 3.00 in assay [2]; below 3.00 in assay [3]; below 3.00 in assay [4]; below 3.00 at DNA polymerase beta; 4.09 against DNA polymerase lambda.

With `COc1cccc2c1C(O)CCC2O` (configuration not stated) [NODULISPOROL], the pIC50 in assay [1] was below 3.00; in assay [2], below 3.00; in assay [3], below 3.00; in assay [4], below 3.00; on DNA polymerase beta, below 3.00; against DNA polymerase lambda it was 3.77.

In the case of `CC1Cc2c(C=O)ccc(O)c2C(=O)O1` (configuration not stated), the negative logarithm of the IC50 (pIC50) in assay [1] was below 3.00; in assay [2], below 3.00; in assay [3], below 3.00; in assay [4] it was below 3.00; against DNA polymerase beta, below 3.00; against DNA polymerase lambda, 3.56.

As to `COc1ccc(C)c2c1C(=O)OC(C)C2` (configuration not stated), the pIC50 in assay [1] was below 3.00; in assay [2], below 3.00; in assay [3] it was below 3.00; in assay [4] it was below 3.00; on DNA polymerase beta, below 3.00; on DNA polymerase lambda, 4.31.
